The term EC50 denotes the concentration giving half of the maximal effect.

The values that follow come from patent US20260355323A1, “CEREBLON-RECRUITING BCL-XL/BCL-2 DUAL DEGRADERS” (University of Florida Research Foundation, Incorporated, priority 2022, published 2026).

Assay [1] relates to MOLT-4 acute lymphoblastic leukemia cells. Kind of assay: Cell viability, tetrazolium-based MTS assay, MOLT-4. To be noted: Homo sapiens, MOLT-4, 48 h; read-out: Anti-Cancer Activity EC50 (48 hr), MOLT-4. The method, then: (§1) Acute lymphoblastic leukemia cells (MOLT-4 and RS4;11) were incubated with increasing concentrations of Bcl-xL/Bcl-2 degraders for 48 h. Cell viability was measured by tetrazolium-based MTS assay.
Background: Tetrazolium assays rely on reduction of a dye to a coloured formazan, in cell work by metabolically active cells.

In assay [2] the test system is WI-38 irradiation-induced senescent cells (IR-SC). Briefly: Senolytic activity, cell viability (PrestoBlue HS), WI-38 IR-SC. It is filed as cell-based. To be noted: Homo sapiens, 72 h. The method, then:
To induce senescence in WI-38 and HUVEC, cells were subjected to x-ray irradiation at 20 Gray using X-RAD 320 biological irradiator. Following between 10 to 15 days after irradiation, senescence was induced in cells, and irradiation-induced senescent cells (IR-SC) were then used for cell viability and Western blotting tests.
(§2) WI-38 and HUVEC cells were incubated with increasing concentrations of degraders for 72 h. Cell viability was measured using PrestoBlue HS cell viability reagent.

In assay [3] the test system is RS4;11 acute lymphoblastic leukemia cells. Briefly: Cell viability, tetrazolium-based MTS assay, RS4;11. Particulars: Homo sapiens, RS4;11, 48 h, read-out: Anti-Cancer Activity EC50 (48 hr), RS4. The method, then: as §1
Assay [4] deals with WI-38 NC. Briefly: Senolytic activity, cell viability (PrestoBlue HS), WI-38 NC. It is filed as cell-based. To be noted: for EC50: Homo sapiens, 72 h. The method, then:
as §2

With `C[C@@]1(CN2CCN(C(=O)CCCN3CCN(c4ccc5c(c4)CN(C4CCC(=O)NC4=O)C5=O)CC3)CC2)CCC(c2ccc(Cl)cc2)=C(CN2CCN(c3ccc(C(=O)NS(=O)(=O)c4ccc(N[C@H](CCN5CCCOCC5)CSc5ccccc5)c(S(=O)(=O)C(F)(F)F)c4)cc3)CC2)C1` (stereo partly drawn) [Compound 2, N-((4-(((R)-4-(1,4-oxazepan-4-yl)-1-(phenylthio)butan-2-yl)amino)-3-((trifluoromethyl)sulfonyl)phenyl)sulfonyl)-4-(4-(((4R)-4′-chloro-4-((4-(4-(4-(2-(2,6-dioxopiperidin-3-yl)-1-oxoisoindolin-5-yl)piperazin-1-yl)butanoyl)piperazin-1-yl)methyl)-4-methyl-3,4,5,6-tetrahydro-[1,1′-biphenyl]-2-yl)methyl)piperazin-1-yl)benzamide], the EC50 in assay [1] is under 1 nM; in assay [2], 1 to 10 nM; in assay [3] it was under 1 nM; in assay [4], over 10000 nM.

`C[C@@]1(CN2CCN(C(=O)CN3CCC(C#Cc4ccc5c(c4)CN(C4CCC(=O)NC4=O)C5=O)CC3)CC2)CCC(c2ccc(Cl)cc2)=C(CN2CCN(c3ccc(C(=O)NS(=O)(=O)c4ccc(N[C@H](CCN5CCCOCC5)CSc5ccccc5)c(S(=O)(=O)C(F)(F)F)c4)cc3)CC2)C1` (stereo partly drawn) [Compound 5, N-((4-(((R)-4-(1,4-oxazepan-4-yl)-1-(phenylthio)butan-2-yl)amino)-3-((trifluoromethyl)sulfonyl)phenyl)sulfonyl)-4-(4-(((4R)-4′-chloro-4-((4-(2-(4-((2-(2,6-dioxopiperidin-3-yl)-1-oxoisoindolin-5-yl)ethynyl)piperidin-1-yl)acetyl)piperazin-1-yl)methyl)-4-methyl-3,4,5,6-tetrahydro-[1,1′-biphenyl]-2-yl)methyl)piperazin-1-yl)benzamide]: the EC50 is under 1 nM in assay [1], 10 to 100 nM in assay [2], under 1 nM in assay [3] and over 10000 nM in assay [4].

With `C[C@@]1(CN2CCC(CCc3ccc4c(c3)CN(C3CCC(=O)NC3=O)C4=O)CC2)CCC(c2ccc(Cl)cc2)=C(CN2CCN(c3ccc(C(=O)NS(=O)(=O)c4ccc(N[C@H](CCN5CCCOCC5)CSc5ccccc5)c(S(=O)(=O)C(F)(F)F)c4)cc3)CC2)C1` (stereo partly drawn) [Compound 46, N-((4-(((R)-4-(1,4-oxazepan-4-yl)-1-(phenylthio)butan-2-yl)amino)-3-((trifluoromethyl)sulfonyl)phenyl)sulfonyl)-4-(4-(((4R)-4′-chloro-4-((4-(2-(2-(2,6-dioxopiperidin-3-yl)-1-oxoisoindolin-5-yl)ethyl)piperidin-1-yl)methyl)-4-methyl-3,4,5,6-tetrahydro-[1,1′-biphenyl]-2-yl)methyl)piperazin-1-yl)benzamide], the results for the EC50 in assay [1], in assay [3] and in assay [4] were under 1 nM, under 1 nM and over 10000 nM, respectively.

In the case of `CC1CN(c2ccc3c(c2)CN(C2CCC(=O)NC2=O)C3=O)CC(C)N1CC1CCN(C[C@]2(C)CCC(c3ccc(Cl)cc3)=C(CN3CCN(c4ccc(C(=O)NS(=O)(=O)c5ccc(N[C@H](CCN6CCCOCC6)CSc6ccccc6)c(S(=O)(=O)C(F)(F)F)c5)cc4)CC3)C2)CC1` (stereo partly drawn) [Compound 50, N-((4-(((R)-4-(1,4-oxazepan-4-yl)-1-(phenylthio)butan-2-yl)amino)-3-((trifluoromethyl)sulfonyl)phenyl)sulfonyl)-4-(4-(((4R)-4′-chloro-4-((4-((4-(2-(2,6-dioxopiperidin-3-yl)-1-oxoisoindolin-5-yl)-2,6-dimethylpiperazin-1-yl)methyl)piperidin-1-yl)methyl)-4-methyl-3,4,5,6-tetrahydro-[1,1′-biphenyl]-2-yl)methyl)piperazin-1-8 yl)benzamide], the EC50 in assay [1] and in assay [3] was under 1 nM in each case. The “Senolytic Activity EC50 (72 hr), WI-38 NC” value in assay [4] is reported as “++ (100-10 μM)”.

On to `C[C@@]1(CN2CCC(CCN3CCN(c4ccc5c(c4)CN(C4CCC(=O)NC4=O)C5=O)CC3)CC2)CCC(c2ccc(Cl)cc2)=C(CN2CCN(c3ccc(C(=O)NS(=O)(=O)c4ccc(N[C@H](CCN5CCCOCC5)CSc5ccccc5)c(S(=O)(=O)C(F)(F)F)c4)cc3)CC2)C1` (stereo partly drawn) [Compound 65, N-((4-(((R)-4-(1,4-oxazepan-4-yl)-1-(phenylthio)butan-2-yl)amino)-3-((trifluoromethyl)sulfonyl)phenyl)sulfonyl)-4-(4-(((4R)-4′-chloro-4-((4-(2-(4-(2-(2,6-dioxopiperidin-3-yl)-1-oxoisoindolin-5-yl)piperazin-1-yl)ethyl)piperidin-1-yl)methyl)-4-methyl-3,4,5,6-tetrahydro-[1,1′-biphenyl]-2-yl)methyl)piperazin-1-yl)benzamide], for which the EC50 is under 1 nM in assay [1], under 1 nM in assay [3] and over 10000 nM in assay [4].

On to `C[C@@]1(CN2CCN(c3ccc4c(c3)CN(C3CCC(=O)NC3=O)C4=O)CC2)CCC(c2ccc(Cl)cc2)=C(CN2CCN(c3ccc(C(=O)NS(=O)(=O)c4ccc(N[C@H](CCN5CCCOCC5)CSc5ccccc5)c(S(=O)(=O)C(F)(F)F)c4)cc3)CC2)C1` (stereo partly drawn) [Compound 127, N-((4-(((R)-4-(1,4-oxazepan-4-yl)-1-(phenylthio)butan-2-yl)amino)-3-((trifluoromethyl)sulfonyl)phenyl)sulfonyl)-4-(4-(((4R)-4′-chloro-4-((4-(2-(2,6-dioxopiperidin-3-yl)-1-oxoisoindolin-5-yl)piperazin-1-yl)methyl)-4-methyl-3,4,5,6-tetrahydro-[1,1′-biphenyl]-2-yl)methyl)piperazin-1-yl)benzamide], for which the results for the EC50 in assay [1], in assay [3] and in assay [4] were under 1 nM, under 1 nM and over 10000 nM, respectively.

For `CC1CN(c2ccc3c(c2)CN(C2CCC(=O)NC2=O)C3=O)CC(C)N1CC1CN(C[C@]2(C)CCC(c3ccc(Cl)cc3)=C(CN3CCN(c4ccc(C(=O)NS(=O)(=O)c5ccc(N[C@H](CCN6CCCOCC6)CSc6ccccc6)c(S(=O)(=O)C(F)(F)F)c5)cc4)CC3)C2)C1` (stereo partly drawn) [Compound 129, N-((4-(((R)-4-(1,4-oxazepan-4-yl)-1-(phenylthio)butan-2-yl)amino)-3-((trifluoromethyl)sulfonyl)phenyl)sulfonyl)-4-(4-(((4R)-4′-chloro-4-((3-((4-(2-(2,6-dioxopiperidin-3-yl)-1-oxoisoindolin-5-yl)-2,6-dimethylpiperazin-1-yl)methyl)azetidin-1-yl)methyl)-4-methyl-3,4,5,6-tetrahydro-[1,1′-biphenyl]-2-yl)methyl)piperazin-1-yl)benzamide], the EC50 was under 1 nM in assay [1], under 1 nM in assay [3] and over 10000 nM in assay [4].

In the case of `C[C@@]1(CN2CCC(CN3CC4CC3CN4c3ccc4c(c3)CN(C3CCC(=O)NC3=O)C4=O)CC2)CCC(c2ccc(Cl)cc2)=C(CN2CCN(c3ccc(C(=O)NS(=O)(=O)c4ccc(N[C@H](CCN5CCCOCC5)CSc5ccccc5)c(S(=O)(=O)C(F)(F)F)c4)cc3)CC2)C1` (stereo partly drawn) [Compound 130, N-((4-(((R)-4-(1,4-oxazepan-4-yl)-1-(phenylthio)butan-2-yl)amino)-3-((trifluoromethyl)sulfonyl)phenyl)sulfonyl)-4-(4-(((4R)-4′-chloro-4-((4-((5-(2-(2,6-dioxopiperidin-3-yl)-1-oxoisoindolin-5-yl)-2,5-diazabicyclo[2.2.1]heptan-2-yl)methyl)piperidin-1-yl)methyl)-4-methyl-3,4,5,6-tetrahydro-[1,1′-biphenyl]-2-yl)methyl)piperazin-1-yl)benzamide], the EC50 in assay [1] is 1 to 10 nM; in assay [3], 1 to 10 nM; in assay [4], over 10000 nM.

With `C[C@@]1(CN2CC(CN3CC4CC3CN4c3ccc4c(c3)CN(C3CCC(=O)NC3=O)C4=O)C2)CCC(c2ccc(Cl)cc2)=C(CN2CCN(c3ccc(C(=O)NS(=O)(=O)c4ccc(N[C@H](CCN5CCCOCC5)CSc5ccccc5)c(S(=O)(=O)C(F)(F)F)c4)cc3)CC2)C1` (stereo partly drawn) [Compound 131, N-((4-(((R)-4-(1,4-oxazepan-4-yl)-1-(phenylthio)butan-2-yl)amino)-3-((trifluoromethyl)sulfonyl)phenyl)sulfonyl)-4-(4-(((4R)-4′-chloro-4-((3-((5-(2-(2,6-dioxopiperidin-3-yl)-1-oxoisoindolin-5-yl)-2,5-diazabicyclo[2.2.1]heptan-2-yl)methyl)azetidin-1-yl)methyl)-4-methyl-3,4,5,6-tetrahydro-[1,1′-biphenyl]-2-yl)methyl)piperazin-1-yl)benzamide], the EC50 in assay [1] is 1 to 10 nM; in assay [3], 1 to 10 nM; in assay [4], over 10000 nM.

With `C[C@@]1(CN2CCC(C#Cc3ccc4c(c3)CN(C3CCC(=O)NC3=O)C4=O)CC2)CCC(c2ccc(Cl)cc2)=C(CN2CCN(c3ccc(C(=O)NS(=O)(=O)c4ccc(N[C@H](CCN5CCCOCC5)CSc5ccccc5)c(S(=O)(=O)C(F)(F)F)c4)cc3)CC2)C1` (stereo partly drawn) [Compound 132, N-((4-(((R)-4-(1,4-oxazepan-4-yl)-1-(phenylthio)butan-2-yl)amino)-3-((trifluoromethyl)sulfonyl)phenyl)sulfonyl)-4-(4-(((4R)-4′-chloro-4-((4-((2-(2,6-dioxopiperidin-3-yl)-1-oxoisoindolin-5-yl)ethynyl)piperidin-1-yl)methyl)-4-methyl-3,4,5,6-tetrahydro-[1,1′-biphenyl]-2-yl)methyl)piperazin-1-yl)benzamide], the EC50 was under 1 nM in assay [1], 1 to 10 nM in assay [3] and over 10000 nM in assay [4].
